Test results published in patent US8093386B2, “Thioaryl substituted inhibitors of zinc proteases and their use” (Bracco Imaging S.p.A, priority 2006, dated 2012).
Each block holds one compound with its values, some of them ahead of it.

Columns and labels:
Type in all cases: biochemical
MMP-14 = target: T1, MMP-14 (Homo sapiens, UniProt P50281); assay: In vitro fluorometric inhibition assay of MMPs: MMP-14
T1 construct: purchased Calbiochem
Protocol: (§1) Analysis of the In Vitro Inhibition Activity of Zinc Metalloproteinases: In Vitro Inhibition of MMMPs
(§2) The human recombinant Progelatinase A (pro-MMP-2), B (pro-MMP-9), MMP-14cd and MMP-16cd, were provided by Prof. Gillian Murphy (Oncology Department, Cambridge University, UK); pro-MMP-1, pro-MMP-3, pro-MMP-7, pro-MMP-8, pro-MMP-13 and pro-MMP-14 were bought from Calbiochem. The proenzymes were activated immediately before the use with p-aminophenylmercuric acetate (APMA 2 mM for 1 h at 37° C. for MMP-1, MMP-2 and MMP-8, 1 mM for 1 h at 37° C. for MMP-9 and MMP-7, 1 mM for 30 min at 37° C. for MMP-13). Pro-MMP-14 and pro-MMP-3 were activated with trypsin 5 μg/ml for 15 min at 37° C. followed the soybean trypsin inhibitor (SBTI) 23 μg/ml for pro-MMP-14 and 62 μg/ml for pro-MMP-3. The catalytic domains of MMP-14 and MMP-16 were utilized without activation.
(§3) For the assay measurements, the stock solutions of the inhibitor (DMSO, 100 mM) were further diluted up to 7 different concentrations (0.01 nM-300 μM) for each MMP, in the buffer for the fluorometric assay (FAB: Tris 50 mM, pH=7.5, NaCl 150 mM, CaCl2 10 mM, Brij 35 0.05% and DMSO 1%). The solutions of activated enzyme (final concentrations 2.9 nM for MMP-2, 2.7 nM for MMP-9, 2.4 nM for MMP-7, 1 nM for MMP-14 and MMP-3, 1.5 nM for MMP-8 and MMP-16cd, 0.84 nM for MMP-14cd, 0.66 nM for MMP-13 and 0.20 nM for MMP-1) and of inhibitor were incubated in the assay buffer for 4 h at 25° C. After the addition of solution of fluorogenic substrate 200 μM Mca-Arg-Pro-Lys-Pro-Val-Glu-Nva-Trp-Arg-Lys(Dnp)-NH2 (Sigma) for MMP-3 and Mca-Lys-Pro-Leu-Gly-Leu-Dpa-Ala-Arg-NH2 (Bachem) for all the other enzymes in DMSO (final concentration 2 μM), the hydrolysis were monitored every 15 sec for 20 min, recording the increase in fluorescence (λex=325 nm, λem=400 nm) with a Molecular Device SpectraMax Gemini XS plates reader. The assays were made in triplicate in a total volume of 200 μl per well on 96 well-plates for microtitolation (Corning, black, NBS). The control wells were without inhibitor.
(§4) The inhibition activity of MMP was expressed in relative fluorescence unit (RFU). The percentage of inhibition was calculated using control reactions without inhibitor.
(§5) IC50 was determined using the formula: Vi/Vo=1/(1+[I]/IC50), wherein Vi is the initial rate of the substrate scission in presence of the inhibitor at the concentration [I] and Vo is the initial rate in the absence of inhibitor. The results were analyzed with the SoftMax Pro software and the GraFit software.

MMP-2 = target: T2, MMP-2 (Homo sapiens, UniProt P08253); assay: In vitro fluorometric inhibition assay of MMPs: MMP-2
T2 construct: gift of Prof; Gillian Murphy (Oncology Department, Cambridge University, UK)
T2 sequence (P08253 110-660): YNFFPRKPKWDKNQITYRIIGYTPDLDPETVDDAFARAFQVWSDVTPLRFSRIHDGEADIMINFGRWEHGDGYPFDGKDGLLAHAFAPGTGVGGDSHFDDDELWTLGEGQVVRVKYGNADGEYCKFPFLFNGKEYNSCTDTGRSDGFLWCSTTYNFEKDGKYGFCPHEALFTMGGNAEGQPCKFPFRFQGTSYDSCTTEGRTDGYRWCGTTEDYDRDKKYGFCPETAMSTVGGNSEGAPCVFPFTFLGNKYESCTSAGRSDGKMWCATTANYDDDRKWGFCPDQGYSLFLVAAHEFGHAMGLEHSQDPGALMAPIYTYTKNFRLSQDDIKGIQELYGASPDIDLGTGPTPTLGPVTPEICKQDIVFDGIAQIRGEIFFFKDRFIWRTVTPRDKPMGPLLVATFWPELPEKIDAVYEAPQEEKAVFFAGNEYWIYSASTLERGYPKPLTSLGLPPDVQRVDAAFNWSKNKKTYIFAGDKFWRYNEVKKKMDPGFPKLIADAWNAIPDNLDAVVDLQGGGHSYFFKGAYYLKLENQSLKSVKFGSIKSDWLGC
Protocol: as §1, §2, §3, §4, §5

MMP-9 = target: T3, MMP-9 (Homo sapiens, UniProt P14780); assay: In vitro fluorometric inhibition assay of MMPs: MMP-9
T3 construct: gift of Prof; Gillian Murphy (Oncology Department, Cambridge University, UK)
T3 sequence (P14780 107-707 limits assumed): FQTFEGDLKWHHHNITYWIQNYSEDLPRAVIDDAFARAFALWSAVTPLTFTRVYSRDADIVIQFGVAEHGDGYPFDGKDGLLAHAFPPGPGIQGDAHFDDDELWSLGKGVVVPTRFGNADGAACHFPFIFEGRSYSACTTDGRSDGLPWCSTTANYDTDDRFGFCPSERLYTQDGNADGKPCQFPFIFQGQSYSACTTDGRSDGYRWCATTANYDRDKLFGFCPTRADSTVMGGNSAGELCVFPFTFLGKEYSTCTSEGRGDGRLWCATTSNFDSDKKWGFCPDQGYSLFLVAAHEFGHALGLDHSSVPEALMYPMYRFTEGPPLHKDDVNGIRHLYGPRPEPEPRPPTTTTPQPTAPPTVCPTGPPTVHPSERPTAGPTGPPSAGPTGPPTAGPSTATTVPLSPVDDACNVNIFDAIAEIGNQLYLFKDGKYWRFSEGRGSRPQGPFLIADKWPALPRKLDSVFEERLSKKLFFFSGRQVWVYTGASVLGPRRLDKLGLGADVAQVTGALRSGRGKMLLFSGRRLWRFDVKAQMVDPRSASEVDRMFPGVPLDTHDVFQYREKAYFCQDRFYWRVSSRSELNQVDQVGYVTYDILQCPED
Protocol: as §1
as §2, with “The proenzymes were activated immediately before the use with p-aminophenylmercuric acetate (APMA 2 mM for 1 h at 37° C. for MMP-1, MMP-2 and MMP-8, 1 mM for 1 h at 37° C. for MMP-9 and MMP-7, 1 mM for 30 min at 37° C. for MMP-13).” left out
as §3, with “The solutions of activated enzyme (final concentrations 2.9 nM for MMP-2, 2.7 nM for MMP-9, 2.4 nM for MMP-7, 1 nM for MMP-14 and MMP-3, 1.5 nM for MMP-8 and MMP-16cd, 0.84 nM for MMP-14cd, 0.66 nM for MMP-13 and 0.20 nM for MMP-1) and of inhibitor were incubated in the assay buffer for 4 h at 25° C.” left out
as §4, §5

MMP-1 = target: T4, MMP-1 (Homo sapiens, UniProt P03956); assay: In vitro fluorometric inhibition assay of MMPs: MMP-1; conditions: Table I, cells without (*)
T4 construct: purchased Calbiochem
T4 sequence (P03956 100-469): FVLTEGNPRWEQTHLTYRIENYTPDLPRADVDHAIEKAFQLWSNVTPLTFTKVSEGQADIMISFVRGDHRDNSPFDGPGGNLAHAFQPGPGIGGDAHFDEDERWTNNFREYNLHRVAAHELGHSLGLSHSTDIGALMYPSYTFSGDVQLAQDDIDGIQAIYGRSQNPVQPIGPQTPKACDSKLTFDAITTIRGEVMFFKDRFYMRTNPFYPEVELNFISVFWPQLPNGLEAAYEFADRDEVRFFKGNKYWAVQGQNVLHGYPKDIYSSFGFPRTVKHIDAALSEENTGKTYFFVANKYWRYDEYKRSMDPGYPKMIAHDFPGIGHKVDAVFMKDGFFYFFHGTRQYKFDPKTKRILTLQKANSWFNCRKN
Protocol: as §1, §2, §3, §4, §5

IC50 (MMP-14; Table II, cells without (*)): 156 ± 9.5 µM | IC50 (MMP-2; Table II, cells without (*)): 65.8 ± 5.8 µM | IC50 (MMP-9; Table II, cells without (*)): 73.7 ± 7.8 µM
SMILES: COc1ccc(-c2ccc(Sc3ccccc3C(C)C(=O)NS(C)(=O)=O)cc2)cc1 (centres unmarked) [Compound 57, 2-(2-(4′-methoxybiphenyl-4-ylthio)phenyl)-N-(methylsulphonyl)propanamide]

IC50 (MMP-14; Table III, cells marked (*)): 260 ± 30.1 µM | IC50 (MMP-2; Table III, cells marked (*)): 78.6 ± 6.3 µM | IC50 (MMP-9; Table III, cells marked (*)): 47.3 ± 2 µM
SMILES: COc1ccc(Oc2ccc(S(=O)(=O)c3ccccc3CC(=O)NS(C)(=O)=O)cc2)cc1 [Compound 43, 2-(2-(4-(4-methoxyphenoxy)phenylsulphonyl)phenyl)-N-(methylsulphonyl)acetamide]

IC50 (MMP-14; Table II, cells without (*)): 127 ± 6.9 µM | IC50 (MMP-2; Table II, cells without (*)): 5.34 ± 0.65 µM | IC50 (MMP-9; Table II, cells without (*)): 17.7 ± 1.4 µM
SMILES: COc1ccc(-c2ccc(Sc3ccccc3CC(=O)NS(C)(=O)=O)cc2)cc1 [Compound 25, 2-(2-(4′-methoxybiphenyl-4-ylthio)phenyl)-N-(methylsulphonyl)acetamide]

IC50 (MMP-14; Table III, cells without (*)): 297 ± 64 µM | IC50 (MMP-2; Table III, cells without (*)): 20 ± 8 µM | IC50 (MMP-9; Table III, cells without (*)): 48.7 ± 8.6 µM
SMILES: COc1ccc(Oc2ccc(Sc3ccccc3CC(=O)O)cc2)cc1 [Compound 11, 2-(2-(4-(4-methoxyphenoxy)phenylthio)phenyl)acetic acid]

IC50 (MMP-14; Table II, cells without (*)): 64.7 ± 2.9 µM | IC50 (MMP-2; Table II, cells without (*)): 22.5 ± 2.1 µM
SMILES: COc1ccc(-c2ccc(S(=O)(=O)c3ccccc3C(=O)NS(C)(=O)=O)cc2)cc1 [Compound 106, 2-(4′-methoxybiphenyl-4-yl-sulphonyl)-N-(methylsulphonyl)benzamide]

IC50 (MMP-14; Table II, cells marked (*)): 3.65 ± 0.2 µM | IC50 (MMP-2; Table II, cells marked (*)): 0.114 ± 0.005 µM
SMILES: COc1ccc(-c2ccc(Sc3ccccc3CC(=O)O)cc2)cc1 [Compound 22, 2-(2-(4′-methoxybiphenyl-4-ylthio)phenyl)acetic acid]

IC50 (MMP-14; Table III, cells marked (*)): 528 ± 58.1 µM | IC50 (MMP-2; Table III, cells marked (*)): 20.5 ± 2.1 µM | IC50 (MMP-9; Table III, cells marked (*)): 101 ± 5.9 µM
SMILES: COc1ccc(Oc2ccc(S(=O)(=O)c3ccccc3C(=O)NS(C)(=O)=O)cc2)cc1 [Compound 38, 2-(4-(4-methoxyphenoxy)phenylsulphonyl)-N-(methylsulphonyl)benzamide]

IC50 (MMP-14; Table III, cells marked (*)): 79 ± 6 µM | IC50 (MMP-2; Table III, cells marked (*)): 12.2 ± 1.6 µM | IC50 (MMP-9; Table III, cells marked (*)): 17.8 ± 1.3 µM
SMILES: COc1ccc(Oc2ccc(Sc3ccccc3C(=O)NS(C)(=O)=O)cc2)cc1 [Compound 8, 2-(4-(4-methoxyphenoxy)phenylthio)-N-(methylsulphonyl)benzamide]

IC50 (MMP-1): 190 ± 10 µM | IC50 (MMP-2; Table I, cells without (*)): 1.8 ± 0.16 µM | IC50 (MMP-9; Table I, cells without (*)): 17 ± 0.96 µM
SMILES: O=C(O)CCC(C(=O)O)c1ccccc1Sc1ccc(-c2ccccc2)cc1 (centres unmarked)

IC50 (MMP-2; Table III, cells without (*)): 0.568 ± 0.031 µM | IC50 (MMP-9; Table III, cells without (*)): 0.105 ± 0.013 µM
SMILES: COc1ccc(Oc2ccc(Sc3ccccc3CC(=O)NO)cc2)cc1 [Compound 13]

IC50 (MMP-14; Table II, cells marked (*)): 6.5 ± 0.597 µM | IC50 (MMP-2; Table II, cells marked (*)): 0.0272 ± 0.0016 µM
SMILES: COc1ccc(-c2ccc(Sc3ccccc3C(C)C(=O)NO)cc2)cc1 (centres unmarked) [Compound 56a, N-hydroxy-2-(2-(4′-methoxybiphenyl-4-ylthio)phenyl)propanamide]

IC50 (MMP-14; Table III, cells marked (*)): 272 ± 18.7 µM | IC50 (MMP-2; Table III, cells marked (*)): 183 ± 18.4 µM | IC50 (MMP-9; Table III, cells marked (*)): 106 ± 23.6 µM
SMILES: COc1ccc(Oc2ccc(Sc3ccccc3CC(=O)NS(C)(=O)=O)cc2)cc1 [Compound 39, 2-(2-(4-(4-methoxyphenoxy)phenylthio)phenyl)-N-(methylsulphonyl)acetamide]

IC50 (MMP-14; Table II, cells marked (*)): 116 ± 9.79 µM | IC50 (MMP-2; Table II, cells marked (*)): 62.5 ± 6.27 µM | IC50 (MMP-9; Table II, cells marked (*)): 83.5 ± 5.87 µM
SMILES: COc1ccc(-c2ccc(Sc3ccccc3C(=O)O)cc2)cc1 [Compound 47, 2-(4′-methoxybiphenyl-4-ylthio)benzoic acid]

More lines, now with the values behind:

SMILES: COc1ccc(-c2ccc(Sc3ccccc3C(C)C(=O)O)cc2)cc1 (centres unmarked) [Compound 54]
IC50 (MMP-14; Table II, cells marked (*)): 9.95 ± 0.916 µM | IC50 (MMP-2; Table II, cells marked (*)): 0.159 ± 0.0068 µM

SMILES: O=C1CC(c2ccccc2S(=O)(=O)c2ccc(-c3ccccc3)cc2)C(=O)N1O (centres unmarked)
IC50 (MMP-1): 186 ± 8 µM | IC50 (MMP-2; Table I, cells without (*)): 7 ± 0.5 µM | IC50 (MMP-9; Table I, cells without (*)): 47 ± 2.7 µM

SMILES: COc1ccc(-c2ccc(Sc3ccccc3C(=O)NS(C)(=O)=O)cc2)cc1 [Compound 48, 2-(4′-methoxybiphenyl-4-ylthio)-N-(methylsulphonyl)benzamide]
IC50 (MMP-14; Table II, cells without (*)): 73.1 ± 7.9 µM | IC50 (MMP-2; Table II, cells without (*)): 41.8 ± 5.1 µM

SMILES: COc1ccc(Oc2ccc(S(=O)(=O)c3ccccc3CP(=O)(O)O)cc2)cc1 [Compound 72, 2-(4-(4-methoxyphenoxy)phenylsulphonyl)benzyl phosphonic acid]
IC50 (MMP-14; Table III, pH 6.7): 1.95 ± 0.212 µM | IC50 (MMP-2; Table III, pH 6.7): 0.571 ± 0.045 µM | IC50 (MMP-9; Table III, pH 6.7): 0.168 ± 0.027 µM

SMILES: O=C1CC(c2ccccc2Sc2ccc(-c3ccccc3)cc2)C(=O)N1O (centres unmarked)
IC50 (MMP-1): 83 ± 11 µM | IC50 (MMP-2; Table I, cells without (*)): 12 ± 0.8 µM | IC50 (MMP-9; Table I, cells without (*)): 35 ± 2.7 µM

SMILES: O=C(O)CC(C(=O)O)c1ccccc1Sc1ccc(-c2ccccc2)cc1 (centres unmarked)
IC50 (MMP-1): 189 ± 28 µM | IC50 (MMP-2; Table I, cells without (*)): 11 ± 1.1 µM | IC50 (MMP-9; Table I, cells without (*)): 95 ± 8.7 µM

SMILES: O=C(O)Cc1ccccc1Sc1ccc(-c2ccccc2)cc1
IC50 (MMP-1): 334 ± 5.7 µM | IC50 (MMP-2; Table I, cells without (*)): 0.33 ± 0.026 µM | IC50 (MMP-9; Table I, cells without (*)): 6.7 ± 0.3 µM

SMILES: COc1ccc(-c2ccc(S(=O)(=O)c3ccccc3CP(=O)(O)O)cc2)cc1 [Compound 86, 2-(4′-methoxybiphenyl-4-ylsulphonyl)benzylphosphonic acid]
IC50 (MMP-14; Table II, cells marked (*)): 8.33 ± 0.511 µM | IC50 (MMP-2; Table II, cells marked (*)): 0.384 ± 0.031 µM | IC50 (MMP-9; Table II, cells marked (*)): 2.47 ± 0.212 µM

SMILES: O=C(Cc1ccccc1Sc1ccc(-c2ccsc2)cc1)NO [Compound 30, N-hydroxy-2-(2-(4-(thiophene-3-yl)phenylthio)phenyl)acetamide]
IC50 (MMP-2; Table I, cells marked (*)): 0.0379 ± 0.0022 µM | IC50 (MMP-9; Table I, cells marked (*)): 1.11 ± 0.136 µM
